Source: PMC4924623 (Molecular cancer therapeutics, 2012)

Molecular target: CB2 receptor (hCB2) (Homo sapiens, UniProt P34972)
Test: competitive radioligand binding, [3H]CP-55, […] displacement

Chain of CB2 receptor (hCB2) (P34972 whole entry): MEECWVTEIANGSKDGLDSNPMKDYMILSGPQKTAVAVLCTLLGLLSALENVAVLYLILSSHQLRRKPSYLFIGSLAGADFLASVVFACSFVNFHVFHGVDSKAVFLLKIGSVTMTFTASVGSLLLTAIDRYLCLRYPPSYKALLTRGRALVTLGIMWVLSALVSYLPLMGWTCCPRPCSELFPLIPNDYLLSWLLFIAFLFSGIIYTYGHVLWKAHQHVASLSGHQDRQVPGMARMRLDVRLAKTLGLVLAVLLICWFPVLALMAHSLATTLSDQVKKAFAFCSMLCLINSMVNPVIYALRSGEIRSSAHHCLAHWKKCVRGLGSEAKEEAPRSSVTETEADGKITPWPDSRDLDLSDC

Ki: 41.2 µM
SMILES: C=C(C)[C@@H]1CC[C@]2(C(=O)O)CC[C@]3(C)[C@H](CC[C@@H]4[C@@]5(C)CC[C@H](O)C(C)(C)[C@@H]5CC[C@]43C)[C@@H]12 [BA, Betulinic acid]
